Drawing on ChEMBL document CHEMBL5316263, “Structure-Based Discovery of Selective Histone Deacetylase 8 Degraders with Potent Anticancer Activity” (J Med Chem, 2023), this text covers Activity, IC50 and viability for 1 compound.

Test [1] concerns A549. Kind of test: Induction of apoptosis in human A549 cells assessed as necrotic cells at 10 uM measured after 72 hrs by annexin V-FITC staining based flow cytometry (reference value: 0.005%). The class given is functional. (In flow cytometry, cells or beads pass a laser one at a time.)
The test system of test [2] is A549. Kind of test: Antiproliferative activity against human A549 cells assessed as inhibition of cell growth measured after 72 hrs under irradiation by CCK-8 method. The following applies: A549, light or radiation study. It counts as functional, cell-based. A general note: Tetrazolium dyes change colour on reduction, which living cells bring about.
In test [3] the target is T1, Histone deacetylase 8 (Homo sapiens) (UniProt Q9BY41).
T1 sequence (whole entry): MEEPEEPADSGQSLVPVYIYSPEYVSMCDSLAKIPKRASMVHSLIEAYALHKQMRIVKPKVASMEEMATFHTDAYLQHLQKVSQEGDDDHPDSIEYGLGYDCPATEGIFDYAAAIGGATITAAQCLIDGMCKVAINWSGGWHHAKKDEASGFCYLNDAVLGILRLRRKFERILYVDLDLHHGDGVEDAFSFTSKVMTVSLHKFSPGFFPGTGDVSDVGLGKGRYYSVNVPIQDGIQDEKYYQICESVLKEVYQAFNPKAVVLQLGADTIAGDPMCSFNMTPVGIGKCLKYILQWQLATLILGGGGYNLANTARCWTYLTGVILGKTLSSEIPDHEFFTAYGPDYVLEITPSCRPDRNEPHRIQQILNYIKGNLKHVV
The test is described as follows: Induction of degradation in HDAC8 in human A549 cells at 2 microM measured after 20 hrs by Western blot analysis relative to control. It counts as cell-based. On the technique in general: In western blotting, separated proteins are transferred to a membrane and probed.

Test [4] relates to A549. Kind of test: Induction of apoptosis in human A549 cells assessed as early apoptotic cells at 30 uM measured after 72 hrs by annexin V-FITC staining based flow cytometry (reference value: 0.13%). It counts as functional.
Test [5] relates to A549. The test is described as follows: Induction of apoptosis in human A549 cells assessed as viable cells at 10 uM measured after 72 hrs by annexin V-FITC staining based flow cytometry (reference value: 99.1%). The class given is functional. The conditions noted are these: read-out: Activity.
Test [6] relates to A549. Kind of test: Induction of apoptosis in human A549 cells assessed as late apoptotic cells at 30 uM measured after 72 hrs by annexin V-FITC staining based flow cytometry (reference value: 0.20%). It counts as functional.
The test system of test [7] is A549. The test is described as follows: Induction of apoptosis in human A549 cells assessed as viable cells at 20 uM measured after 72 hrs by annexin V-FITC staining based flow cytometry (reference value: 99.1%). It counts as functional. The conditions noted are these: read-out: Activity.
In test [8] the test system is A549. Kind of test: Induction of apoptosis in human A549 cells assessed as necrotic cells at 30 uM measured after 72 hrs by annexin V-FITC staining based flow cytometry (reference value: 0.005%). The class given is functional.
For test [9], the system named is A549. The test is described as follows: Antiproliferative activity against human A549 cells assessed as inhibition of cell growth measured after 72 hrs by CCK-8 method. It counts as functional, cell-based. The conditions noted are these: A549, 72 h.
In test [10] the test system is A549. Kind of test: Induction of apoptosis in human A549 cells assessed as late apoptotic cells at 10 uM measured after 72 hrs by annexin V-FITC staining based flow cytometry (reference value: 0.20%). It counts as functional.
Test [11] deals with T1, Histone deacetylase 8 (Homo sapiens). Kind of test: Induction of degradation in HDAC8 in human A549 cells at 200 nM measured after 20 hrs by Western blot analysis relative to control. It counts as cell-based.
The test system of test [12] is A549. Kind of test: Induction of apoptosis in human A549 cells assessed as necrotic cells at 20 uM measured after 72 hrs by annexin V-FITC staining based flow cytometry (reference value: 0.005%). The class given is functional.
Test [13] deals with A549. Kind of test: Induction of apoptosis in human A549 cells assessed as late apoptotic cells at 40 uM measured after 72 hrs by annexin V-FITC staining based flow cytometry (reference value: 0.20%). It counts as functional.
Test [14] concerns A549. Kind of test: Induction of apoptosis in human A549 cells assessed as viable cells at 30 uM measured after 72 hrs by annexin V-FITC staining based flow cytometry (reference value: 99.1%). It counts as functional. The conditions noted are these: read-out: Activity.
Test [15] has as its system A549. Kind of test: Induction of apoptosis in human A549 cells assessed as necrotic cells at 40 uM measured after 72 hrs by annexin V-FITC staining based flow cytometry (reference value: 0.005%). It counts as functional.
The test system of test [16] is A549. Kind of test: Induction of apoptosis in human A549 cells assessed as early apoptotic cells at 20 uM measured after 72 hrs by annexin V-FITC staining based flow cytometry (reference value: 0.13%). It counts as functional.
Test [17] relates to A549. Kind of test: Induction of apoptosis in human A549 cells assessed as early apoptotic cells at 40 uM measured after 72 hrs by annexin V-FITC staining based flow cytometry (reference value: 0.13%). The class given is functional.
Test [18] has as its system A549. Kind of test: Induction of apoptosis in human A549 cells assessed as viable cells at 40 uM measured after 72 hrs by annexin V-FITC staining based flow cytometry (reference value: 99.1%). It counts as functional. The conditions noted are these: read-out: Activity.
The test system of test [19] is A549. The test is described as follows: Induction of apoptosis in human A549 cells assessed as early apoptotic cells at 10 uM measured after 72 hrs by annexin V-FITC staining based flow cytometry (reference value: 0.13%). The class given is functional.
Test [20] deals with A549. The test is described as follows: Induction of apoptosis in human A549 cells assessed as late apoptotic cells at 20 uM measured after 72 hrs by annexin V-FITC staining based flow cytometry (reference value: 0.20%). The class given is functional.

Structures are written as SMILES.

For the compound `COc1ccc(Cn2ccc3ccc(C(=O)NO)cc32)cc1`, the Activity was 0.7% in the test on A549 [1]; 5% in test [3]; 63% in the test with A549 [4]; 12% in the test with A549 [6]; 0.47% with A549 [8]; 11.7% with A549 [10]. Besides, the Activity in test [11] stood at 3.6%; in the test with A549 [12], 0.67%; in the test on A549 [13], 24.9%; in the test on A549 [15] it was 1.21%; with A549 [16], 50.7%; with A549 [17] it was 46.3%. In addition, the Activity in the test with A549 [19] is 42%; in the test on A549 [20], 9.71%. In addition, the IC50 (commonly the point on the concentration scale where inhibition reaches its midpoint) in the test with A549 [2] was 13.1 µM; with A549 [9], 15.8 µM. Moreover, in the test with A549 [5], the viability at 10 µM was 45.6%. Further, the viability at 20 µM in the test with A549 [7] was found to be 29%. Further, in the test with A549 [14], the viability at 30 µM is 24.6%. For the same compound, the viability at 40 µM in the test with A549 [18] is 28.6%.
